Assay results reported in patent US9409905B2, “Antibacterial compounds and methods for use” (PTC THERAPEUTICS, INC., priority 2011, dated 2016).
≈ marks a conversion by molar mass, not a printed value.

Experiments:
[1] = tested on: Escherichia coli (E. coli) BAS849; experiment: Antibacterial activity, microbroth dilution MIC (Table 1); assay type: cell-based; details: microbroth dilution, super sensitive Gram-negative E. coli BAS849, read-out: MIC, BAS849
Procedure, shortened: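 Values are MICs (μg/mL): the smallest drug amount at which macroscopically visible bacterial growth is absent under assay conditions, from a microdilution method in broth.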

[2] = tested on: Staphylococcus aureus (S. aureus) 29213; experiment: as above; assay type: cell-based; details: microbroth dilution, Gram-positive S. aureus 29213, read-out: MIC, 29213
Procedure, shortened: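 Read-out: visual absence of growth. The lowest concentration meeting this gives the MIC, expressed in μg/mL, with microbroth dilution as the method.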

[3] = tested on: E. coli 25922; experiment: as above; assay type: cell-based, Escherichia coli; details: Escherichia coli; microbroth dilution; control Gram-negative E. coli 25922 strain; read-out: MIC, 25922
Procedure, shortened: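 Microbroth dilution was used. MIC, in μg/mL, is the lowest drug concentration preventing macroscopically visible growth under the test conditions.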

[4] = tested on: Pseudomonas aeruginosa (P. aeruginosa) 27853; experiment: Antibacterial activity, MIC (Table 5); assay type: cell-based; details: P. aeruginosa 27853, read-out: MIC, 27853
Procedure, shortened: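 Using a microbroth dilution format, the minimum inhibitory concentration was recorded as the lowest tested concentration that stopped visible bacterial growth, expressed in μg/mL.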

[5] = tested on: E. coli LZ3111; experiment: Antibacterial activity, MIC, quinolone resistant strain (Table 2); assay type: cell-based; details: Escherichia coli, LZ3111, read-out: MIC LZ3111
Procedure, shortened: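 Growth inhibition assessed by serial drug dilution in broth; endpoint was absence of macroscopically visible growth, reported as MIC, μg/mL.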

[6] = tested on: E. coli ELZ4251; experiment: Antibacterial activity, MIC, multi-drug resistant clinical isolate (Table 3); assay type: cell-based; details: Escherichia coli
Excerpt: (§1) The antibacterial activity from a microbroth dilution method may be presented as the minimum inhibitory concentration (MIC in μg/mL). The MIC value is the lowest concentration of drug which prevents macroscopically visible growth under test conditions.
(§2) Antibacterial activity of test compounds against E. coli ELZ4000 and E. coli ELZ4251 multi-drug resistant clinical isolates is shown in Table 3.

[7] = tested on: E. coli ELZ4000; experiment: as above; assay type: cell-based; details: Escherichia coli, ELZ4000, read-out: MIC ELZ4000
Excerpt: as §1, §2

[8] = tested on: Klebsiella pneumoniae (K. pneumoniae) 35657; experiment: Antibacterial activity, MIC (Table 4); assay type: cell-based; details: K. pneumoniae 35657, read-out: MIC, 35657
Procedure, shortened: (§3)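 Values are minimum inhibitory concentrations in μg/mL from broth microdilution, meaning no macroscopically visible growth at that concentration. Resistant MXX isolates are multi-drug resistant clinical strains.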

[9] = tested on: Acinetobacter baumannii (A. baumannii) BAA747; experiment: Antibacterial activity, MIC (Table 4); assay type: cell-based; details: A. baumannii BAA747, read-out: MIC, BAA747
Procedure, shortened: as §3

[10] = tested on: A. baumannii MXX2240; experiment: Antibacterial activity, MIC, resistant strain (Table 4); assay type: cell-based; details: Acinetobacter baumannii, MXX2240; resistant A. baumannii MMX2240, multi-drug resistant clinical isolate; read-out: MIC, MMX2240
Procedure, shortened: as §3

[11] = tested on: K. pneumoniae MXX1232; experiment: as above; assay type: cell-based; details: Klebsiella pneumoniae, MXX1232; resistant K. pneumoniae MMX1232, multi-drug resistant clinical isolate; read-out: MIC, MMX1232
Procedure, shortened: as §3

SMILES | MIC [1] [µg/mL] | MIC [2] [µg/mL] | MIC [3] [µg/mL] | MIC [4] [µg/mL] | MIC [5] [µg/mL] | MIC [6] [µg/mL] | MIC [7] [µg/mL] | MIC [8] [µg/mL] | MIC [9] [µg/mL] | MIC [10] [µg/mL] | MIC [11] [µg/mL]
CCc1c(-c2ccc3c(c2)cc(CN(C)C2CCCC2)n3C)[nH]c(=O)c(C(=O)O)c1O.Cl [Cpd 211, 6-(2-((cyclopentyl(methyl)amino)methyl)-1-methyl-1H-indol-5-yl)-5-ethyl-4-hydroxy-2-oxo-1,2-dihydropyridine-3-carboxylic acid hydrochloride] | < 1 | 3.5 to 12.5 | 1 to 3.5 | 12.5 to 150 | 3.5 to 12.5 | 12.5 to 150 | 12.5 to 150 |  |  |  | 
CCc1c(-c2ccc3c(c2)cc(CN2C[C@H]4C[C@@H](N(C)Cc5ccccc5)C[C@H]4C2)n3C)[nH]c(=O)c(C(=O)O)c1O [Cpd 288, 6-(2-(((3aR,5r,6aS)-5-(benzyl(methyl)amino)hexahydrocyclopenta[c]pyrrol-2(1H)-yl)methyl)-1-methyl-1H-indol-5-yl)-5-ethyl-4-hydroxy-2-oxo-1,2-dihydropyridine-3-carboxylic acid] | < 1 | 3.5 to 12.5 (≈ 6.31 to 22.5 µM) | 1 to 3.5 (≈ 1.8 to 6.31 µM) | 12.5 to 150 (≈ 22.5 to 270 µM) | 12.5 to 150 (≈ 22.5 to 270 µM) | 12.5 to 150 (≈ 22.5 to 270 µM) | 12.5 to 150 (≈ 22.5 to 270 µM) |  |  |  | 
CCc1c(-c2ccc3c(c2)cc(CNC2CCCCC2)n3C)[nH]c(=O)c(C(=O)O)c1O.Cl [Cpd 241, 6-(2-((cyclohexylamino)methyl)-1-methyl-1H-indol-5-yl)-5-ethyl-4-hydroxy-2-oxo-1,2-dihydropyridine-3-carboxylic acid hydrochloride] | < 1 | 3.5 to 12.5 | < 1 | 12.5 to 150 | 3.5 to 12.5 | 3.5 to 12.5 | 12.5 to 150 |  |  |  | 
CCc1c(-c2ccc3ncccc3c2)[nH]c(=O)c(C(=O)O)c1O [Cpd 20, 5-ethyl-4-hydroxy-2-oxo-6-(quinolin-6-yl)-1,2-dihydropyridine-3-carboxylic acid] | 1 to 3.5 (≈ 3.22 to 11.3 µM) | 12.5 to 150 (≈ 40.3 to 483 µM) | 12.5 to 150 (≈ 40.3 to 483 µM) | 12.5 to 150 (≈ 40.3 to 483 µM) | 3.5 to 12.5 (≈ 11.3 to 40.3 µM) | 3.5 to 12.5 (≈ 11.3 to 40.3 µM) | 12.5 to 150 (≈ 40.3 to 483 µM) |  |  |  | 
CCCCCCCNCc1cc2cc(-c3[nH]c(=O)c(C(=O)O)c(O)c3CC)ccc2n1C [Cpd 336, 5-ethyl-6-(2-((heptylamino)methyl)-1-methyl-1H-indol-5-yl)-4-hydroxy-2-oxo-1,2-dihydropyridine-3-carboxylic acid] | < 1 | < 1 | 3.5 to 12.5 (≈ 7.96 to 28.4 µM) | 12.5 to 150 (≈ 28.4 to 341 µM) | < 1 | 12.5 to 150 (≈ 28.4 to 341 µM) |  | 12.5 to 150 (≈ 28.4 to 341 µM) | 12.5 to 150 (≈ 28.4 to 341 µM) | 12.5 to 150 (≈ 28.4 to 341 µM) | 12.5 to 150 (≈ 28.4 to 341 µM)
CCCCNCc1cc2cc(-c3[nH]c(=O)c(C(=O)O)c(O)c3CC)ccc2n1C [Cpd 333, 6-(2-((butylamino)methyl)-1-methyl-1H-indol-5-yl)-5-ethyl-4-hydroxy-2-oxo-1,2-dihydropyridine-3-carboxylic acid] | < 1 | 3.5 to 12.5 (≈ 8.81 to 31.4 µM) | < 1 | 12.5 to 150 (≈ 31.4 to 377 µM) | 3.5 to 12.5 (≈ 8.81 to 31.4 µM) | 12.5 to 150 (≈ 31.4 to 377 µM) |  | < 1 | < 1 | 1 to 3.5 (≈ 2.52 to 8.81 µM) | 12.5 to 150 (≈ 31.4 to 377 µM)
CCc1c(-c2ccc3sccc3c2)[nH]c(=O)c(C(=O)O)c1O [Cpd 367, 6-(benzo[b]thiophen-5-yl)-5-ethyl-4-hydroxy-2-oxo-1,2-dihydropyridine-3-carboxylic acid] | < 1 | 1 to 3.5 (≈ 3.17 to 11.1 µM) | 12.5 to 150 (≈ 39.6 to 476 µM) | 12.5 to 150 (≈ 39.6 to 476 µM) | 3.5 to 12.5 (≈ 11.1 to 39.6 µM) | 12.5 to 150 (≈ 39.6 to 476 µM) |  | 12.5 to 150 (≈ 39.6 to 476 µM) | 12.5 to 150 (≈ 39.6 to 476 µM) | 3.5 to 12.5 (≈ 11.1 to 39.6 µM) | 12.5 to 150 (≈ 39.6 to 476 µM)
CCc1cc(C(=O)O)c(=O)[nH]c1-c1ccc2occc2c1 [Cpd 364, 6-(benzofuran-5-yl)-5-ethyl-2-oxo-1,2-dihydropyridine-3-carboxylic acid] | 1 to 3.5 (≈ 3.53 to 12.4 µM) | 12.5 to 150 (≈ 44.1 to 530 µM) | 12.5 to 150 (≈ 44.1 to 530 µM) | 12.5 to 150 (≈ 44.1 to 530 µM) | 12.5 to 150 (≈ 44.1 to 530 µM) | 12.5 to 150 (≈ 44.1 to 530 µM) |  | 12.5 to 150 (≈ 44.1 to 530 µM) | 12.5 to 150 (≈ 44.1 to 530 µM) | 12.5 to 150 (≈ 44.1 to 530 µM) | 12.5 to 150 (≈ 44.1 to 530 µM)
CCCCCCCCNCc1cc2cc(-c3[nH]c(=O)c(C(=O)O)c(O)c3CC)ccc2n1C [Cpd 337, 5-ethyl-4-hydroxy-6-(1-methyl-2-((octylamino)methyl)-1H-indol-5-yl)-2-oxo-1,2-dihydropyridine-3-carboxylic acid] | < 1 | 1 to 3.5 (≈ 2.2 to 7.72 µM) | 12.5 to 150 (≈ 27.6 to 331 µM) | 12.5 to 150 (≈ 27.6 to 331 µM) | 3.5 to 12.5 (≈ 7.72 to 27.6 µM) | 12.5 to 150 (≈ 27.6 to 331 µM) |  | 12.5 to 150 (≈ 27.6 to 331 µM) | 12.5 to 150 (≈ 27.6 to 331 µM) | 12.5 to 150 (≈ 27.6 to 331 µM) | 12.5 to 150 (≈ 27.6 to 331 µM)
